The text below walks through data of patent US4172130A, “α-AMINOACYL CONTAINING NEW PEPTIDES WITH GASTRIN EFFECTS AND A PROCESS FOR THE PREPARATION THEREOF” (Richter Gedeon Vegyeszeti Gyar RT, priority 1976, dated 1979).

Assay [1] has as its system gastric acid secretion. Kind of assay: Gastric acid secretion increasing effect, methods of Ghosh and Schild and Lai, modified by Pissidis and Clark. In kind it is in vivo. The settings on record: for Activity, % (gastric acid secretion increasing effect): in comparison with 0.2 μ/100 g i.v. dosage of pentagastrin = 100%. Here is the method:
The biological activities of the new compounds according to the invention were tested by the methods of Ghosh and Schild (Br. J. Pharmac. Chemoth. 13, 54 (1958) and Lai (Gut. 5, 327 (1964), modified by Pissidis and Clark (Gut. 8, 196 (1967)). The pharmacological tests have shown that the gastric acid secretion provoked by the new compounds is occasionally higher by 20 to 80% than that provoked by the same dosage of pentagastrin. It is particularly remarkable that the new compounds, in contrast with pentagastrin, are resorbed also from the small intenstine, and, when administered to the small intenstine in a dosage of 20 μg/100 g body weight, exert effects similar to that exerted by a 0.2 μg/100 g i.v. dosage of pentagastrin. […] It is also remarkable that some of the new compounds increase the gastric acid secretion after resorption from the rectum.

The test system of assay [2] is gastric acid secretion. The settings on record: in vivo; cited from earlier work.

Peptide text beside a SMILES is read from it. * marks the point of attachment. X2 = CC(C)(C)OC(=O)NOCC(=O)*

On to `CSCC[C@H](NC(=O)[C@H](Cc1c[nH]c2ccccc12)NC(=O)CONC(=O)OC(C)(C)C)C(=O)N[C@@H](CC(=O)O)C(=O)N[C@@H](Cc1ccccc1)C(=O)NOCC(=O)O` [BOC-O-Gly Met OGly-OH, 2-(2-(tert.-Butoxycarbonyl-aminooxy)-acetyl-L-tryptophyl-L-methionyl-L-aspartyl-L-phenylalanyl-aminooxy)-acetic acid], for which the figures for the “Activity, % (gastric acid secretion increasing effect)” value with gastric acid secretion [1] (0.2 μg i.v.) and with gastric acid secretion [1] (20 μg rectal) were 25% and 22%, respectively.
As to `CC(C)C[C@H](NC(=O)[C@H](Cc1c[nH]c2ccccc12)NC(=O)CONC(=O)OC(C)(C)C)C(=O)N[C@@H](CC(=O)O)C(=O)N[C@@H](Cc1ccccc1)C(N)=O` [BOC-OGly Leu H, 2-(tert.-Butoxycarbonyl-aminooxy)-acetyl-L-tryptophyl-L-leucyl-L-aspartyl-L-phenylalanine-amide] (X2-WLDF-NH2), the “Activity, % (gastric acid secretion increasing effect)” value in the assay with gastric acid secretion [1] (0.2 μg i.v.) came out at 124%; in the assay on gastric acid secretion [1] (2.0 μg i.v.), 272%; in the assay with gastric acid secretion [1] (20 μg intestinal), 6%; with gastric acid secretion [1] (20 μg rectal) it was 68%.
As to `CSCC[C@H](NC(=O)[C@H](Cc1c[nH]c2ccccc12)NC(=O)CCONC(=O)OC(C)(C)C)C(=O)N[C@@H](CC(=O)O)C(=O)N[C@@H](Cc1ccccc1)C(=O)NOCC(=O)O` [BOC-β-OAla Met OGly-OH, 2-(3-(tert.-Butoxycarbonyl-aminooxy)-propionyl-L-tryptophyl-L-methionyl-L-aspartyl-L-phenylalanyl-aminooxy)-acetic acid], the “Activity, % (gastric acid secretion increasing effect)” value in the assay on gastric acid secretion [1] (0.2 μg i.v.) worked out at 32%.
For the compound `CSCC[C@H](NC(=O)[C@H](Cc1c[nH]c2ccccc12)NC(=O)CCNC(=O)OC(C)(C)C)C(=O)N[C@@H](CC(=O)O)C(=O)N[C@@H](Cc1ccccc1)C(N)=O` [pentagastrin, BOC--β--Ala-- Trp--Met--Asp--Phe--NH2, reference compound], the “Activity, % (gastric acid secretion increasing effect)” value in the assay on gastric acid secretion [1] (0.2 μg i.v.) came out at 100%. Besides, the “gastric acid secretion when administered enterally” value in the assay on gastric acid secretion [1] (enteral, even in higher dosages) was “does not increase the gastric acid secretion”. Besides, the “activity among known analogs and derivatives of the tetrapeptide-amide / compared with pentagastrin” value in the assay with gastric acid secretion [2] was “the most active derivative”.
Regarding “H--Trp--Met--Asp--Phe--NH2: carboxy-terminal tetrapeptide-amide, the biologically active center of gastrin”, in the assay with gastric acid secretion [2], the “gastric acid secretion stimulating effect compared with the total hormone (gastrin)” value was “lower by about one order of magnitude”.
